Measured values reported in article PMC9992173, “Mapping of the extracellular RBP4 ligand binding domain on the RBPR2 receptor for Vitamin A transport” (Frontiers in Cell and Developmental Biology, 2023).
No end group written: not given here.

Molecular target: T1, mouse RBP4 (Mus musculus, UniProt Q00724)
T1 construct: 6XHis; made in house; host or cells: E. coli
Experiment: Surface plasmon resonance (SPR) binding of SYL-motif peptides to immobilized RBP4
Details: SPR affinity fit, Figure 6B; repeated in the discussion as calculated binding affinity; read-out: Best-fit values Kd
Description: Purified RBP4 protein with >90% purity and 0.56 mg/mL concentration was immobilized on Biacore Sensor Chip CM5 (ITDD Biacore S200 Surface Plasmon Resonance instrument at University of Minnesota). The two-flow cell surface activated for using one as blank and other as test. Using Amine Coupling Kit (Cat. No. BR100050; Cytiva, Marlborough, MA, US) 1-ethyl-3-(3-dimethylaminopropyl) carbodiimide hydrochloride (EDC), N-hydroxysuccinimide (NHS), after surface activation, the purified RBP4 with immobilization buffer 10 mM Sodium acetate, pH 5.0, was immobilized with target of 1,200 Response Unit (RU) for achieving Rmax of 30RU in kinetic study. The reaction stopped and washed with Ethanolamine. The system was re-primed with running buffer PBST (phosphate-buffered saline solution with a 0.05% Tween20 detergent solution). The kinetic assay performed on the two flow cells, the blank was used as reference cell and the active cell with RBP4 was used for the binding study. […] The program was run and non-specific binding on the reference cell subtracted bulk refractive index from the active sensorgram and analyzed for the association, dissociation and stabilization of the reads. […]

Kd: 25.4 µM
Sequence: HVRDKLDMFEDKLESYLTHMNETGTLTPIILQVKELISVTKG [mouse RBPR2]
